In PubChem BioAssay (NCI):
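Each compound was tested at five concentrations against cells in 96-well plates for 48 hours. GI50 = concentration required for 50% inhibition of growth. TGI: total growth inhibition.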

Key:
Assay in all cases: inhibition of tumour cell growth, NCI panel, 48 h
ACHN renal = test system: ACHN renal
HCC-2998 colon = test system: HCC-2998 colon
NCI-H522 lung = test system: NCI-H522 lung
SNB-75 CNS = test system: SNB-75 CNS
NCI/ADR-RES ovarian = test system: NCI/ADR-RES ovarian
BT-549 breast = test system: BT-549 breast
TK-10 renal = test system: TK-10 renal
NCI-H226 lung = test system: NCI-H226 lung
K-562 leukemia = test system: K-562 leukemia
OVCAR-8 ovarian = test system: OVCAR-8 ovarian
KM12 colon = test system: KM12 colon
HOP-62 NSCLC = test system: HOP-62 NSCLC
SK-OV-3 ovarian = test system: SK-OV-3 ovarian
SNB-19 CNS = test system: SNB-19 CNS
SK-MEL-2 melanoma = test system: SK-MEL-2 melanoma
HT29 colon = test system: HT29 colon
UO-31 renal = test system: UO-31 renal
OVCAR-5 ovarian = test system: OVCAR-5 ovarian
MDA-MB-435 = test system: MDA-MB-435
SF-268 CNS = test system: SF-268 CNS
DU-145 prostate = test system: DU-145 prostate
CAKI-1 renal = test system: CAKI-1 renal
M14 melanoma = test system: M14 melanoma
PC-3 prostate = test system: PC-3 prostate
SN12C renal = test system: SN12C renal
MCF7 breast = test system: MCF7 breast
HL-60(TB) leukemia = test system: HL-60(TB) leukemia
EKVX NSCLC = test system: EKVX NSCLC
RPMI-8226 leukemia = test system: RPMI-8226 leukemia
SK-MEL-5 melanoma = test system: SK-MEL-5 melanoma
SR leukemia = test system: SR leukemia
NCI-H23 lung = test system: NCI-H23 lung
CCRF-CEM leukemia = test system: CCRF-CEM leukemia
SK-MEL-28 melanoma = test system: SK-MEL-28 melanoma
A498 renal = test system: A498 renal
HCT-15 colon = test system: HCT-15 colon
UACC-257 melanoma = test system: UACC-257 melanoma
HCT-116 colon = test system: HCT-116 colon
T-47D breast = test system: T-47D breast
U251 CNS = test system: U251 CNS
OVCAR-3 ovarian = test system: OVCAR-3 ovarian
RXF 393 renal = test system: RXF 393 renal
UACC-62 melanoma = test system: UACC-62 melanoma
IGROV1 ovarian = test system: IGROV1 ovarian
MDA-MB-231 breast = test system: MDA-MB-231 breast
MOLT-4 leukemia = test system: MOLT-4 leukemia
NCI-H460 lung = test system: NCI-H460 lung
786-0 renal = test system: 786-0 renal
HOP-92 NSCLC = test system: HOP-92 NSCLC
A549 NSCLC = test system: A549 NSCLC
SF-539 CNS = test system: SF-539 CNS
SW-620 colon = test system: SW-620 colon
SF-295 CNS = test system: SF-295 CNS
HS 578T breast = test system: HS 578T breast
COLO 205 colon = test system: COLO 205 colon
OVCAR-4 ovarian = test system: OVCAR-4 ovarian
MALME-3M melanoma = test system: MALME-3M melanoma
LOX IMVI melanoma = test system: LOX IMVI melanoma

SMILES: O=C(Cc1ccccc1CCO)NCCc1ccccc1
- TGI (ACHN renal): > 100 µM
- TGI (HCC-2998 colon): > 100 µM
- TGI (NCI-H522 lung): > 100 µM
- TGI (SNB-75 CNS): > 100 µM
- TGI (NCI/ADR-RES ovarian): > 100 µM
- TGI (BT-549 breast): > 100 µM
- TGI (TK-10 renal): > 100 µM
- TGI (NCI-H226 lung): > 100 µM
- TGI (K-562 leukemia): > 100 µM
- TGI (OVCAR-8 ovarian): > 100 µM
- TGI (KM12 colon): > 100 µM
- TGI (HOP-62 NSCLC): > 100 µM
- TGI (SK-OV-3 ovarian): > 100 µM
- TGI (SNB-19 CNS): > 100 µM
- TGI (SK-MEL-2 melanoma): > 100 µM
- TGI (HT29 colon): > 100 µM
- TGI (UO-31 renal): > 100 µM
- TGI (OVCAR-5 ovarian): > 100 µM
- TGI (MDA-MB-435): > 100 µM
- TGI (SF-268 CNS): > 100 µM
- TGI (DU-145 prostate): > 100 µM
- TGI (CAKI-1 renal): > 100 µM
- TGI (M14 melanoma): > 100 µM
- TGI (PC-3 prostate): > 100 µM
- TGI (SN12C renal): > 100 µM
- TGI (MCF7 breast): > 100 µM
- TGI (HL-60(TB) leukemia): > 100 µM
- TGI (EKVX NSCLC): > 100 µM
- TGI (RPMI-8226 leukemia): > 100 µM
- TGI (SK-MEL-5 melanoma): > 100 µM
- TGI (SR leukemia): > 100 µM
- TGI (NCI-H23 lung): > 100 µM
- TGI (CCRF-CEM leukemia): > 100 µM
- TGI (SK-MEL-28 melanoma): > 100 µM
- TGI (A498 renal): > 100 µM
- TGI (HCT-15 colon): > 100 µM
- TGI (UACC-257 melanoma): > 100 µM
- TGI (HCT-116 colon): > 100 µM
- TGI (T-47D breast): > 100 µM
- TGI (U251 CNS): > 100 µM
- TGI (OVCAR-3 ovarian): > 100 µM
- TGI (RXF 393 renal): > 100 µM
- TGI (UACC-62 melanoma): > 100 µM
- TGI (IGROV1 ovarian): > 100 µM
- TGI (MDA-MB-231 breast): > 100 µM
- TGI (MOLT-4 leukemia): > 100 µM
- TGI (NCI-H460 lung): > 100 µM
- TGI (786-0 renal): > 100 µM
- TGI (HOP-92 NSCLC): > 100 µM
- TGI (A549 NSCLC): > 100 µM
- TGI (SF-539 CNS): > 100 µM
- TGI (SW-620 colon): > 100 µM
- TGI (SF-295 CNS): > 100 µM
- TGI (HS 578T breast): > 100 µM
- TGI (COLO 205 colon): > 100 µM
- TGI (OVCAR-4 ovarian): > 100 µM

SMILES: O=C(/C=C\Sc1ccccn1)c1cccc(Br)c1
- GI50 (ACHN renal): 1.65 µM
- TGI (ACHN renal): 3 µM
- GI50 (HCC-2998 colon): 3.9 µM
- TGI (HCC-2998 colon): 15 µM
- GI50 (NCI-H522 lung): 2.28 µM
- TGI (NCI-H522 lung): 5.84 µM
- GI50 (NCI/ADR-RES ovarian): 8.8 µM
- TGI (NCI/ADR-RES ovarian): > 100 µM
- GI50 (BT-549 breast): 7.29 µM
- TGI (BT-549 breast): 32 µM
- GI50 (TK-10 renal): 3.25 µM
- TGI (TK-10 renal): 12.2 µM
- GI50 (NCI-H226 lung): 2.32 µM
- TGI (NCI-H226 lung): 5.46 µM
- GI50 (K-562 leukemia): 2.23 µM
- TGI (K-562 leukemia): 6.63 µM
- GI50 (OVCAR-8 ovarian): 3.53 µM
- TGI (OVCAR-8 ovarian): > 100 µM
- GI50 (KM12 colon): 13.4 µM
- TGI (KM12 colon): 28.8 µM
- GI50 (HOP-62 NSCLC): 17.4 µM
- TGI (HOP-62 NSCLC): 33.7 µM
- GI50 (SK-OV-3 ovarian): > 100 µM
- TGI (SK-OV-3 ovarian): > 100 µM
- GI50 (SNB-19 CNS): 39.1 µM
- TGI (SNB-19 CNS): > 100 µM
- GI50 (HT29 colon): 3.46 µM
- TGI (HT29 colon): > 100 µM
- GI50 (UO-31 renal): 5.15 µM
- TGI (UO-31 renal): 23.1 µM
- GI50 (OVCAR-5 ovarian): 15 µM
- TGI (OVCAR-5 ovarian): 29.5 µM
- GI50 (MDA-MB-435): 9.12 µM
- TGI (MDA-MB-435): 77.9 µM
- GI50 (SF-268 CNS): 6.53 µM
- TGI (SF-268 CNS): 26.4 µM
- GI50 (DU-145 prostate): 16.3 µM
- TGI (DU-145 prostate): 30.7 µM
- GI50 (CAKI-1 renal): 3.99 µM
- TGI (CAKI-1 renal): 17.2 µM
- GI50 (M14 melanoma): 15 µM
- TGI (M14 melanoma): 43.4 µM
- GI50 (PC-3 prostate): 7.68 µM
- TGI (PC-3 prostate): 22.5 µM
- GI50 (SN12C renal): 10.2 µM
- TGI (SN12C renal): 24.3 µM
- GI50 (MCF7 breast): 1.77 µM
- TGI (MCF7 breast): 6.18 µM
- GI50 (HL-60(TB) leukemia): 2.25 µM
- TGI (HL-60(TB) leukemia): 6.32 µM
- GI50 (EKVX NSCLC): 19.3 µM
- TGI (EKVX NSCLC): 35.7 µM
- GI50 (RPMI-8226 leukemia): 0.0787 µM
- TGI (RPMI-8226 leukemia): > 100 µM
- GI50 (SK-MEL-5 melanoma): 14.1 µM
- TGI (SK-MEL-5 melanoma): 28 µM
- GI50 (SR leukemia): 1.68 µM
- TGI (SR leukemia): 3.79 µM
- GI50 (NCI-H23 lung): 10.8 µM
- TGI (NCI-H23 lung): 25.1 µM
- GI50 (CCRF-CEM leukemia): 3 µM
- TGI (CCRF-CEM leukemia): > 100 µM
- GI50 (SK-MEL-28 melanoma): 8.65 µM
- TGI (SK-MEL-28 melanoma): > 100 µM
- GI50 (A498 renal): 19.5 µM
- TGI (A498 renal): 36.5 µM
- GI50 (HCT-15 colon): 1.4 µM
- TGI (HCT-15 colon): 3.23 µM
- GI50 (UACC-257 melanoma): 21.2 µM
- TGI (UACC-257 melanoma): 43.4 µM
- GI50 (HCT-116 colon): 1.95 µM
- TGI (HCT-116 colon): 3.85 µM
- GI50 (T-47D breast): 7.54 µM
- TGI (T-47D breast): > 100 µM
- GI50 (U251 CNS): 10.2 µM
- TGI (U251 CNS): 21.8 µM
- GI50 (OVCAR-3 ovarian): 5.54 µM
- TGI (OVCAR-3 ovarian): 24.2 µM
- GI50 (RXF 393 renal): 2.64 µM
- TGI (RXF 393 renal): 8.62 µM
- GI50 (UACC-62 melanoma): 11.7 µM
- TGI (UACC-62 melanoma): 24.5 µM
- GI50 (IGROV1 ovarian): 16.5 µM
- TGI (IGROV1 ovarian): 50.4 µM
- GI50 (MDA-MB-231 breast): 2.35 µM
- TGI (MDA-MB-231 breast): 5.96 µM
- GI50 (MOLT-4 leukemia): 1.6 µM
- TGI (MOLT-4 leukemia): 4.23 µM
- GI50 (NCI-H460 lung): 9.41 µM
- TGI (NCI-H460 lung): 29.6 µM
- GI50 (786-0 renal): 2.67 µM
- TGI (786-0 renal): 6.48 µM
- GI50 (HOP-92 NSCLC): 2.64 µM
- TGI (HOP-92 NSCLC): 7.85 µM
- GI50 (A549 NSCLC): 23 µM
- TGI (A549 NSCLC): 80.3 µM
- GI50 (MALME-3M melanoma): 2.83 µM
- TGI (MALME-3M melanoma): 8.97 µM
- GI50 (SF-539 CNS): 8.15 µM
- TGI (SF-539 CNS): 25 µM
- GI50 (SW-620 colon): 2.82 µM
- TGI (SW-620 colon): 8.41 µM
- GI50 (SF-295 CNS): 16 µM
- TGI (SF-295 CNS): 39.6 µM
- GI50 (LOX IMVI melanoma): 1.69 µM
- TGI (LOX IMVI melanoma): 3.12 µM
- GI50 (HS 578T breast): 19.5 µM
- TGI (HS 578T breast): 83.3 µM
- GI50 (COLO 205 colon): 5.27 µM
- TGI (COLO 205 colon): > 100 µM
- GI50 (OVCAR-4 ovarian): 5.71 µM
- TGI (OVCAR-4 ovarian): > 100 µM
